Tests used:
Test in all cases: Premier Screen kinase panel (MRC PPU)
Type in all cases: biochemical
MNK2 = MNK2 (Homo sapiens, UniProt Q9HBH9); conditions: MNK2 (Entrez MKNK2), read-out: Residual activity (%)
Experimental: (§1) room temperature with shaking for 30 minutes. The kinase concentration in the eluates was measured by qPCR.
(§2) using ADP-GloTM assay at the MRC PPU International Centre for Kinase Profiling, University of Dundee.
(§3) Conducted by MRC PPU International Centre
(§4) Conducted by MRC PPU International Centre for […]

TTK = TTK (Homo sapiens, UniProt P33981); conditions: TTK (Entrez TTK), read-out: Residual activity (%)
Experimental: as §1, §2, §3, §4

CDK2-Cyclin A = CDK2-Cyclin A (Homo sapiens, UniProt P24941); conditions: CDK2-Cyclin A (Entrez CDK2 + CCNA2), read-out: Residual activity (%)
Experimental: as §1, §2, §3, §4

HIPK1 = HIPK1 (Homo sapiens, UniProt Q86Z02); conditions: HIPK1 (Entrez HIPK1), read-out: Residual activity (%)
Experimental: as §1, §2, §3, §4

NEK2a = NEK2a (Homo sapiens, UniProt P51955); conditions: NEK2a (Entrez NEK2), read-out: Residual activity (%)
Experimental: as §1, §2, §3, §4

TIE2 = TIE2 (Homo sapiens, UniProt Q02763); conditions: TIE2 (Entrez TEK), read-out: Residual activity (%)
Experimental: as §1, §2, §3, §4

ROCK 2 = ROCK 2 (Rattus norvegicus, UniProt Q62868); conditions: ROCK 2 (Entrez ROCK2), read-out: Residual activity (%)
Experimental: as §1, §2, §3, §4

BRSK1 = BRSK1 (Homo sapiens, UniProt Q8TDC3); conditions: BRSK1 (Entrez BRSK1), read-out: Residual activity (%)
Experimental: as §1, §2, §3, §4

EIF2AK3 = EIF2AK3 (Homo sapiens, UniProt Q9NZJ5); conditions: EIF2AK3 (Entrez EIF2AK3), read-out: Residual activity (%)
Experimental: as §1, §2, §3, §4

IRAK4 = IRAK4 (Homo sapiens, UniProt Q9NWZ3); conditions: IRAK4 (Entrez IRAK4), read-out: Residual activity (%)
Experimental: as §1, §2, §3, §4

ERK5 = ERK5 (Homo sapiens, UniProt Q13164); conditions: ERK5 (Entrez MAPK7), read-out: Residual activity (%)
Experimental: as §1, §2, §3, §4

SYK = SYK (Homo sapiens, UniProt P43405); conditions: SYK (Entrez SYK), read-out: Residual activity (%)
Experimental: as §1, §2, §3, §4

PKCγ = PKCγ (Homo sapiens, UniProt P05129); conditions: read-out: Residual activity (%)
Experimental: as §1, §2, §3, §4

EPH-B3 = EPH-B3 (Homo sapiens, UniProt P54753); conditions: EPH-B3 (Entrez EPHB3), read-out: Residual activity (%)
Experimental: as §1, §2, §3, §4

SIK3 = SIK3 (Homo sapiens, UniProt Q9Y2K2); conditions: SIK3 (Entrez SIK3), read-out: Residual activity (%)
Experimental: as §1, §2, §3, §4

p38g MAPK = p38g MAPK (Homo sapiens, UniProt P53778); conditions: p38g MAPK (Entrez MAPK13), read-out: Residual activity (%)
Experimental: as §1, §2, §3, §4

Aurora B = Aurora B (Homo sapiens, UniProt Q96GD4); conditions: Aurora B (Entrez AURKB), read-out: Residual activity (%)
Experimental: as §1, §2, §3, §4

AMPK (hum) = AMPK (hum) (Homo sapiens, UniProt Q13131); conditions: AMPK (hum) (Entrez PRKAA1 + PRKAB2 + PRKAG1), read-out: Residual activity (%)
Experimental: as §1, §2, §3, §4

NEK6 = NEK6 (Homo sapiens, UniProt Q9HC98); conditions: NEK6 (Entrez NEK6), read-out: Residual activity (%)
Experimental: as §1, §2, §3, §4

IKKe = IKKe (Homo sapiens, UniProt Q14164); conditions: IKKe (Entrez IKBKE), read-out: Residual activity (%)
Experimental: as §1, §2, §3, §4

IGF-1R = IGF-1R (Homo sapiens, UniProt P08069); conditions: IGF-1R (Entrez IGF1R), read-out: Residual activity (%)
Experimental: as §1, §2, §3, §4

NUAK1 = NUAK1 (Homo sapiens, UniProt O60285); conditions: NUAK1 (Entrez NUAK1), read-out: Residual activity (%)
Experimental: as §1, §2, §3, §4

MPSK1 = MPSK1 (Homo sapiens, UniProt O75716); conditions: MPSK1 (Entrez STK16), read-out: Residual activity (%)
Experimental: as §1, §2, §3, §4

ERK1 = ERK1 (Homo sapiens, UniProt P27361); conditions: ERK1 (Entrez MAPK3), read-out: Residual activity (%)
Experimental: as §1, §2, §3, §4

OSR1 = OSR1 (Homo sapiens, UniProt O95747); conditions: OSR1 (Entrez OXSR1), read-out: Residual activity (%)
Experimental: as §1, §2, §3, §4

FGF-R1 = FGF-R1 (Homo sapiens, UniProt P11362); conditions: FGF-R1 (Entrez FGFR1), read-out: Residual activity (%)
Experimental: as §1, §2, §3, §4

RSK2 = RSK2 (Homo sapiens, UniProt P51812); conditions: RSK2 (Entrez RPS6KA3), read-out: Residual activity (%)
Experimental: as §1, §2, §3, §4

TGFBR1 = TGFBR1 (Homo sapiens, UniProt P36897); conditions: TGFBR1 (Entrez TGFBR1), read-out: Residual activity (%)
Experimental: as §1, §2, §3, §4

PIM3 = PIM3 (Homo sapiens, UniProt Q86V86); conditions: PIM3 (Entrez PIM3), read-out: Residual activity (%)
Experimental: as §1, §2, §3, §4

PAK2 = PAK2 (Homo sapiens, UniProt Q13177); conditions: PAK2 (Entrez PAK2), read-out: Residual activity (%)
Experimental: as §1, §2, §3, §4

TTBK1 = TTBK1 (Homo sapiens, UniProt Q5TCY1); conditions: TTBK1 (Entrez TTBK1), read-out: Residual activity (%)
Experimental: as §1, §2, §3, §4

Chain of IKKe (Q14164 whole entry): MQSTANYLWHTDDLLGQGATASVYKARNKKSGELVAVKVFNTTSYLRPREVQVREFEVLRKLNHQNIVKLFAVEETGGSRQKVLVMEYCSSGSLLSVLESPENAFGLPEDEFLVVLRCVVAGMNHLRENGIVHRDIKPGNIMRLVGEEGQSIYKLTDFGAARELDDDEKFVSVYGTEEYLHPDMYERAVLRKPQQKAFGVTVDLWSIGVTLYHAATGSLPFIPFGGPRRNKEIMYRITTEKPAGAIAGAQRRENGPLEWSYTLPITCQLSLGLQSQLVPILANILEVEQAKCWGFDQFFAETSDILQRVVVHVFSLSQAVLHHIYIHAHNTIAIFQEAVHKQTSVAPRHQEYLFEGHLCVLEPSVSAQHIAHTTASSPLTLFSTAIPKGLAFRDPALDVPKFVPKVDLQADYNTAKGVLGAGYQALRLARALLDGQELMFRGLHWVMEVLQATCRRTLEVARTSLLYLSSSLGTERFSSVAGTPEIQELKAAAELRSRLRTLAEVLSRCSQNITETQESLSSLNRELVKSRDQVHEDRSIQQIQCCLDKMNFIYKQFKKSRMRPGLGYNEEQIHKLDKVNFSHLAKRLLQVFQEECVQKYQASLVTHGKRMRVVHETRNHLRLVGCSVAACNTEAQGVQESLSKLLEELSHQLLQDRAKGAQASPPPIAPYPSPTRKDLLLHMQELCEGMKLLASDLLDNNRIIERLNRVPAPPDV
Chain of MNK2 (Q9HBH9 whole entry): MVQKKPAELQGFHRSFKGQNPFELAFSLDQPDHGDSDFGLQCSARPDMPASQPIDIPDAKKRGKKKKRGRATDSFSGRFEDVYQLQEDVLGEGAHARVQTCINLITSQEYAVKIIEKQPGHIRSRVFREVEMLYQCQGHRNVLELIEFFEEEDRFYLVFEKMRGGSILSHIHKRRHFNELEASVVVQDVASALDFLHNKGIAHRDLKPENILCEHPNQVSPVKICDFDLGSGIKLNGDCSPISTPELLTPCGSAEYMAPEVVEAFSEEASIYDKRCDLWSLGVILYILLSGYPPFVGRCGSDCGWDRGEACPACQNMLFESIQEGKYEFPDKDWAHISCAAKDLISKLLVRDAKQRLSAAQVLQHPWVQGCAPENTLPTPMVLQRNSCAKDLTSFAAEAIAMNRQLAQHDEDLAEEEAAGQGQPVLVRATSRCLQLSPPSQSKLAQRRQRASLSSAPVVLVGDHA
Chain of TTK (P33981 whole entry): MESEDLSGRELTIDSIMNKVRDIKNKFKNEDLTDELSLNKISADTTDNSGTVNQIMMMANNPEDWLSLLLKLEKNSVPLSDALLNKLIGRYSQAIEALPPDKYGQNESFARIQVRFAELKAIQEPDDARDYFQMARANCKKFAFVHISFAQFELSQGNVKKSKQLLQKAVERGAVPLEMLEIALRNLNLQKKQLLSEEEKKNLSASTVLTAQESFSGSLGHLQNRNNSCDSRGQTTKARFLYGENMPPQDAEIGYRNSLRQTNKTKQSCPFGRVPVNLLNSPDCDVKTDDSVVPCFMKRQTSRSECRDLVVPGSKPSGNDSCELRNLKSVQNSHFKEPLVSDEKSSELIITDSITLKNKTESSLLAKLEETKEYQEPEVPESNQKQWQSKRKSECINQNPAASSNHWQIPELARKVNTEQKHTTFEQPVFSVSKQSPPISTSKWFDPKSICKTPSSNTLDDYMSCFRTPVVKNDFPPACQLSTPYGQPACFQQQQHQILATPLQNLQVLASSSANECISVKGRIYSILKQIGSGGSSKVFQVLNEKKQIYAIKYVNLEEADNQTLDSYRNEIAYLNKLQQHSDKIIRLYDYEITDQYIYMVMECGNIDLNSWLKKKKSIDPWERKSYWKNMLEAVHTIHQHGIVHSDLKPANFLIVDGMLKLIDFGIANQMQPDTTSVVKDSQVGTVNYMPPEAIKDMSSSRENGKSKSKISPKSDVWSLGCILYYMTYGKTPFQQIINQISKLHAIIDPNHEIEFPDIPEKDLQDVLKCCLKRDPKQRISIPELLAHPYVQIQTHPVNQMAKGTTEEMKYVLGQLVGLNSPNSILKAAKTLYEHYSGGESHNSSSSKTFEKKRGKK
Chain of ROCK 2 (Q62868 2-543 limits assumed): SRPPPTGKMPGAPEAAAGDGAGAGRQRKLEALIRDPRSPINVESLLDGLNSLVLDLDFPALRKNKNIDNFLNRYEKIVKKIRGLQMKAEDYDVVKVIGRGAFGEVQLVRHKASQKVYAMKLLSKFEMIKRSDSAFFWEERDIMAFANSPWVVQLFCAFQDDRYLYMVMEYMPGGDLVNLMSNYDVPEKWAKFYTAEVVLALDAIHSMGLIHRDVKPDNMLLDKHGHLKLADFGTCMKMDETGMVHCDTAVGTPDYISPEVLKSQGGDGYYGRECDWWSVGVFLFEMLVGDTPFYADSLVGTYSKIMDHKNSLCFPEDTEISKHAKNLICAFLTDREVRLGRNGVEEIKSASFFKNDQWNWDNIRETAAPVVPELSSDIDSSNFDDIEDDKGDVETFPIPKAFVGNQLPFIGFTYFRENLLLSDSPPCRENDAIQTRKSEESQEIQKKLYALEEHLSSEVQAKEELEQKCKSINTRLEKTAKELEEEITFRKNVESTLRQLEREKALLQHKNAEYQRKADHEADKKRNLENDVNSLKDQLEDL
Chain of Aurora B (Q96GD4 whole entry): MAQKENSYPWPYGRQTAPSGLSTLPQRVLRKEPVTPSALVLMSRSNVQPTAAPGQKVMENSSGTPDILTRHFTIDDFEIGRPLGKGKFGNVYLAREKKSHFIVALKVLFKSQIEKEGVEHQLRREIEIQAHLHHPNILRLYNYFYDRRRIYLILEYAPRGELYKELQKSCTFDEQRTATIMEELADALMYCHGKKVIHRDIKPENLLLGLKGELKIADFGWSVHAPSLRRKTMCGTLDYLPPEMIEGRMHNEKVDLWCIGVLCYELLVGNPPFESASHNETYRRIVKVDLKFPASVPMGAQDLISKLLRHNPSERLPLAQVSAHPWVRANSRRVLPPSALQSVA
Chain of FGF-R1 (P11362 22-822): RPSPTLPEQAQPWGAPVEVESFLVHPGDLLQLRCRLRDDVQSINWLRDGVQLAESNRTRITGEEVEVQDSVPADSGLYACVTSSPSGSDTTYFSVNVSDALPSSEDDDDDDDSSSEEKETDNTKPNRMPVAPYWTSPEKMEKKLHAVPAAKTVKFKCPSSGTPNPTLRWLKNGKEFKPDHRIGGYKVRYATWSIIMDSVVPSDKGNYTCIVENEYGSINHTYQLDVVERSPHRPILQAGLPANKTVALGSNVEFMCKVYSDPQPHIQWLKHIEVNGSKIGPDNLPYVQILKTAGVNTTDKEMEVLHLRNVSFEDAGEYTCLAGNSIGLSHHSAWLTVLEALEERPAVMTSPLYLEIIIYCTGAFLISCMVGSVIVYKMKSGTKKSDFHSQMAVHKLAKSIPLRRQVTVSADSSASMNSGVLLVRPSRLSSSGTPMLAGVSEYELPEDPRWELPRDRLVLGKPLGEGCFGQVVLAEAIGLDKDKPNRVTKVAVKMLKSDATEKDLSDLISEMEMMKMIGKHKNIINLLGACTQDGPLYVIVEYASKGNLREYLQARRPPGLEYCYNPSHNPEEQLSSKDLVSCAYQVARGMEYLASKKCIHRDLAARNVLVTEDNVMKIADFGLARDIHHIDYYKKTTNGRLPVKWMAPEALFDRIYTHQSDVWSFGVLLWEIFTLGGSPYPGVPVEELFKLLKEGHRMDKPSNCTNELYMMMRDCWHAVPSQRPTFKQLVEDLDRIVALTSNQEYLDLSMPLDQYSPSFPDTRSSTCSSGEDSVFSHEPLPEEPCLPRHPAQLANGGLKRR
Chain of HIPK1 (Q86Z02 whole entry): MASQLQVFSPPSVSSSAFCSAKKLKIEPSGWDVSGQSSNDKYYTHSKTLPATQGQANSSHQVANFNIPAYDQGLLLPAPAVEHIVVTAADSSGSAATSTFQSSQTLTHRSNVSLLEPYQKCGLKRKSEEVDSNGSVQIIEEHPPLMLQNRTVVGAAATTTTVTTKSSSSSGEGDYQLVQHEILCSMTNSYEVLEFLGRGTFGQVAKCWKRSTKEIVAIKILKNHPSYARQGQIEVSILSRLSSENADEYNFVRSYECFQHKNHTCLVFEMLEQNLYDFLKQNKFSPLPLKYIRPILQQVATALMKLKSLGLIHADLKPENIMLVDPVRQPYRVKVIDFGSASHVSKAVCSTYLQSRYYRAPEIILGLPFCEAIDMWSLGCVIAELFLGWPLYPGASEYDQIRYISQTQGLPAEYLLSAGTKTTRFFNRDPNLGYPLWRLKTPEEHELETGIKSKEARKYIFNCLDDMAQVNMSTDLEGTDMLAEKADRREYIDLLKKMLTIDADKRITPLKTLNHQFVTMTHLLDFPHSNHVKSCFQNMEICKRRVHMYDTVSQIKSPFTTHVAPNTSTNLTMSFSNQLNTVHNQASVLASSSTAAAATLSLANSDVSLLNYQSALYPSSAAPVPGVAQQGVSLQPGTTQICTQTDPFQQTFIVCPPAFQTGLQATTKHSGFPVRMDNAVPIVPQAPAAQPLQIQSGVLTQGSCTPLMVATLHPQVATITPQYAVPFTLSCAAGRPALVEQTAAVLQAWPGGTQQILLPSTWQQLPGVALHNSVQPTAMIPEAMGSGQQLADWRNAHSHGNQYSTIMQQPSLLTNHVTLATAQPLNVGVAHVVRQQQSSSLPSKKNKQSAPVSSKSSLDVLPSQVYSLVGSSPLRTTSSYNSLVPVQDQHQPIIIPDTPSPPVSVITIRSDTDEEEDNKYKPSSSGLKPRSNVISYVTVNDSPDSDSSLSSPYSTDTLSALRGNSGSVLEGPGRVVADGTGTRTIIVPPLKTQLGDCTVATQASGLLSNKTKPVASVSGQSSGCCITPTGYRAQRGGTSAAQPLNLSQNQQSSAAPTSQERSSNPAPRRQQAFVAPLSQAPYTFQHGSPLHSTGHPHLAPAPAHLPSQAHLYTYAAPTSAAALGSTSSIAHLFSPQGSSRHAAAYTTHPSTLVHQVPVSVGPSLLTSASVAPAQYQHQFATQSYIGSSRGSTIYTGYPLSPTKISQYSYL

## COc1ccc(Nc2ncnc3c2ccn3-c2ccc(C)c(C)c2)cc1Cl [compound 36]
MNK2
  remaining activity at 1 µM: 90%
TTK
  remaining activity at 1 µM: 87%
CDK2-Cyclin A
  remaining activity at 1 µM: 100%
HIPK1
  remaining activity at 1 µM: 104%
NEK2a
  remaining activity at 1 µM: 86%
TIE2
  remaining activity at 1 µM: 105%
ROCK 2
  remaining activity at 1 µM: 96%
BRSK1
  remaining activity at 1 µM: 97%
EIF2AK3
  remaining activity at 1 µM: 76%
IRAK4
  remaining activity at 1 µM: 113%
ERK5
  remaining activity at 1 µM: 95%
SYK
  remaining activity at 1 µM: 97%
PKCγ
  remaining activity at 1 µM: 107%
EPH-B3
  remaining activity at 1 µM: 79%
SIK3
  remaining activity at 1 µM: 123%
p38g MAPK
  remaining activity at 1 µM: 101%
Aurora B
  remaining activity at 1 µM: 110%
AMPK (hum)
  remaining activity at 1 µM: 94%
NEK6
  remaining activity at 1 µM: 104%
IKKe
  remaining activity at 1 µM: 89%
IGF-1R
  remaining activity at 1 µM: 119%
NUAK1
  remaining activity at 1 µM: 138%
MPSK1
  remaining activity at 1 µM: 96%
ERK1
  remaining activity at 1 µM: 62%
OSR1
  remaining activity at 1 µM: 87%
FGF-R1
  remaining activity at 1 µM: 95%
RSK2
  remaining activity at 1 µM: 77%
TGFBR1
  remaining activity at 1 µM: 87%
PIM3
  remaining activity at 1 µM: 87%
PAK2
  remaining activity at 1 µM: 99%
TTBK1
  remaining activity at 1 µM: 68%

From publication PMC10211317, “Identification of ARUK2002821 as an isoform-selective PI5P4Kα inhibitor” (RSC Medicinal Chemistry, 2023)
